Where “and” joins values, the source holds several entries; their conditions need not be identical. Identical values can stand only once. Like-named read-outs stand apart in the source and are kept apart here. Marks after values point to notes of the source that are not given here. Ends that are not written are not given here.
Key:
[1] = tested on: Enterococcus faecium (n = 104); test: microbe, parasite or virus in culture; settings: n = 104
Description: Comparator antibiotics were supplied by Micromyx, and stock solutions were prepared on the first day of testing using solvents recommended by CLSI (1). Stock solutions of all compounds were made at 40× the final testing concentration and stored at −80° C. prior to testing. Information regarding compound source, catalog and lot number, testing concentrations and drug diluent for the comparators and test agent are detailed below in Table 3.
The test organisms evaluated in this study consisted of clinical isolates from the Micromyx Repository and reference isolates from the American Type Culture Collection (ATCC; Manassas, Va.). The clinical isolates were obtained from USA hospitals. Upon initial receipt at Micromyx, the organisms were sub-cultured onto an appropriate agar medium. Following incubation, colonies were harvested from these plates and cell suspensions prepared and frozen at −80° C. with a cryoprotectant. Prior to testing, the isolates were streaked from frozen vials onto Trypticase Soy Agar with 5% sheep blood (Becton Dickenson [BD]; Sparks, MD; Lot Nos. 7173618, 7166759, 7208688, 72144895, 7228505 and Remel Lenexa, Kans. Lot No. 212574). Plates were incubated at 35° C. overnight.
Mueller Hinton II broth (MHB II; BD; Lot Nos. 6258541 and 7143896) was used for MIC testing of aerobic organisms.
MIC values were determined using a broth microdilution procedure described by CLSI (1, 3). Automated liquid handlers (Multidrop 384, Labsystems, Helsinki, Finland; Biomek 2000 and Biomek FX, Beckman Coulter, Fullerton Calif.) were used to conduct serial dilutions and liquid transfers.
To prepare the drug mother plates, which would provide the serial drug dilutions for the replicate daughter plates, the wells of columns 2-12 of standard 96-well microdilution plates (Costar 3795) were filled with 150 µl of the designated diluent for each row of drug. The test articles and comparator compounds ([…] at 40× the highest concentration to be tested) were dispensed into the appropriate wells in column 1. The Biomek 2000 was then used to make 2-fold serial dilutions in the mother plates from column 1 through column 11. The wells of Column 12 contained no drug and served as the organism growth control wells for the assay.
The daughter plates were loaded with […] per well of MHB II using the Multidrop 384. The daughter plates were completed on the Biomek FX instrument which transferred 5 µL of drug solution from each well of a mother plate to the corresponding well of each daughter plate in a single step. A standardized inoculum of each test organism was prepared per CLSI methods (1). The inoculum for each organism was dispensed into sterile reservoirs divided by length (Beckman Coulter), and the Biomek 2000 was used to inoculate the plates. Daughter plates were placed on the Biomek 2000 work surface in reverse orientation so that inoculation took place from low to high drug concentration.
Plates were stacked 3-4 high, covered with a lid on the top plate, placed in plastic bags, and incubated at 35° C. for 16 to 20 hrs. Following incubation, the microplates were removed from the incubator and viewed from the bottom using a plate viewer. […] The MIC was read and recorded as the lowest concentration of drug that inhibited visible growth of the organism.
Clinical breakpoints to determine percent resistance within a given organism group were obtained from CLSI (3), with the exception of colistin for K. pneumoniae, Enterobacter spp., and E. coli, which are only available from EUCAST.

[2] = monkey
Description: Animals will be obtained from the Test Facility's colony of adult male cynomolgous monkeys (Macaca fascicularis) of Chinese origin. Animals will be weighed prior to dosing.
Intravenous administration will be via 30 minute infusion into a temporary percutaneous catheter placed into a saphenous vein. Prior to and following dose administration, the catheter will be flushed with 0.5 mL saline prior to removal. All dosing syringes will be weighed prior to and following dosing.
Serial blood samples will be collected via femoral vein (cephalic or saphenous, as necessary). Approximately 1 mL blood samples will be collected into K2EDTA tubes.
Blood samples will be collected into K2EDTA tubes and stored on wet ice. Whole blood will be processed to plasma by centrifugation (2400-2700 rpm at 5° C.) within 30 minutes of collection. Plasma samples will be split into 2 equal aliquots and stored at −80° C. until analysis.
(§2) Prior to extraction, a known concentration of a mass-adjusted internal standard (IS) will be added to assess recovery and allow for quantitation. Purified samples will be further subjected to high-performance liquid chromatography (HPLC) using C18 300 or 130 angstrom columns prior to MS/MS analysis. Multiple charge states will be observed by MS, so MS/MS will be employed to enable multiple reaction monitoring (MRM) analyses to determine the most MRM transitions with the highest signal-to-noise gain. Compound plasma concentrations will be determined by comparing to and compensating with co-purified IS peak intensity and validated calibrated standard curves.
Toxicokinetic parameters will be calculated using non-compartmental methods as implemented in the Phoenix® WinNonlin® ver. 6.3 comprehensive TK/PK analysis software program (Pharsight Corporation; Mountain View, Calif.) using an IV infusion model. Toxicokinetic analysis will be conducted using a 30-minute intravenous infusion time. Therefore, 30 minutes will be added to each sample time point postdose to obtain nominal time for TK analysis. Nominal times and dosage levels will be used for all calculations. Values below the lower limit of quantitation (BLQ) will be assigned a value of zero for the toxicokinetic calculations. Microsoft® Excel® 2013 will be used for receipt of bioanalytical data, minor formatting, including setting BLQ values to “0”, transfer into WinNonlin® for TK analysis, and calculation of the mean when an approximated value will be excluded. All plasma concentration data from all animals will be included in the analysis.

[3] = mouse
Description: Male CD-1 mice will be received from an approved vendor and allowed to acclimate for a minimum of two days. Fasting will be not required.
All dosing syringes will be weighed prior to and following dosing. IV doses will be administered as a slow bolus (over ˜30 seconds) via direct venipuncture of a tail vein. All animals will be observed at dosing and each scheduled collection. All abnormalities will be recorded.
Terminal blood samples will be collected via cardiac puncture following inhalation anesthesia.
Sample Processing and Storage: Blood samples will be collected into K2EDTA tubes and stored on wet ice. Whole blood will be processed to plasma by centrifugation (3500 rpm at 5° C.) within 30 minutes of collection. Plasma samples will be split into 2 equal aliquots and each transferred into 96 well plates (matrix tubes) and stored at −80° C. until analysis. Administered doses will be determined gravimetrically.
as §2
Pharmacokinetic parameters will be calculated using non-compartmental methods as implemented in the Phoenix® WinNonlin® ver. 6.3 comprehensive TK/PK analysis software program (Pharsight Corporation; Mountain View, Calif.) using an IV infusion model. Pharmacokinetic analysis will be conducted using a 30-minute intravenous infusion time. Therefore, 30 minutes will be added to each sample time point postdose to obtain nominal time for TK analysis. Nominal times and dosage levels will be used for all calculations. Values below the lower limit of quantitation (BLQ) will be assigned a value of zero for the pharmacokinetic calculations. Microsoft® Excel® 2013 will be used for receipt of bioanalytical data, minor formatting, including setting BLQ values to “0”, transfer into WinNonlin® for PK analysis, and calculation of the mean when an approximated value will be excluded. All plasma concentration data from all animals will be included in the analysis. Graphical presentations will be performed using Microsoft® Excel® 2013.

[4] = tested on: Staphylococcus aureus (n = 104); test: microbe, parasite or virus in culture; format: cell-based
Description: (§1) The clinical isolates were obtained from USA hospitals. […] Plates were incubated at 35° C. overnight.

[5] = tested on: Enterobacter spp. (n = 102); format: cell-based, Enterobacter aerogenes and E. cloacae
Description: as §1

[6] = IV infusion 1 mg/kg, individual animals
[7] = IV infusion 3 mg/kg, individual animals
[8] = IV infusion 10 mg/kg, individual animals
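Throughout, for AUC0-24hr: adult male cynomolgus monkeys given a 30-min IV infusion, plasma drug levels quantified by LC-MS/MS against internal standard, parameters from non-compartmental IV infusion model analysis.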
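Throughout, for AUCinf Extrapolated: adult male cynomolgus monkeys given a 30-min IV infusion, plasma drug levels quantified by LC-MS/MS against internal standard, parameters from non-compartmental IV infusion model analysis.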
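Throughout, for AUClast: adult male cynomolgus monkeys given a 30-min IV infusion, plasma drug levels quantified by LC-MS/MS against internal standard, parameters from non-compartmental IV infusion model analysis.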
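Throughout, for Cmax: adult male cynomolgus monkeys given a 30-min IV infusion, plasma drug levels quantified by LC-MS/MS against internal standard, parameters from non-compartmental IV infusion model analysis.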

Substance: RRWVRRVRRVWRRVVRVVRRWVRR-NH2 (C-terminus assumed) [SEQ ID NO: 1]
- MIC50 [1]: 0.5 mg/L
- MIC90 [1]: 1 mg/L
- MIC range [1]: 0.25 to 2 mg/L
- Mode (MIC) [1]: 1 mg/L
- AUC0-24hr ([2]; IV infusion 1 mg/kg, Mean): 1.09 µg·h/mL
- AUCinf ([2]; IV infusion 1 mg/kg, Mean): 1170 ng·h/mL
- AUCinf Extrapolated ([2]; IV infusion 1 mg/kg, Mean): 10.0%
- AUClast ([2]; IV infusion 1 mg/kg, Mean): 0.983 µg·h/mL
- Cmax ([2]; IV infusion 1 mg/kg, Mean): 1.71 µg/mL
- Dose Normalized AUClast ([2]; IV infusion 1 mg/kg, Mean): 983
- Dose Normalized Cmax ([2]; IV infusion 1 mg/kg, Mean): 1710
- T1/2 ([2]; IV infusion 1 mg/kg, Mean): 2 h
- Vss ([2]; IV infusion 1 mg/kg, Mean): 1380 mL/kg
- AUC0-24hr [2, 6]: 0.821 µg·h/mL and 1.82 µg·h/mL and 0.616 µg·h/mL
- AUCinf [2, 6]: 938* hr*ng/mL and 1730 hr*ng/mL and 610 hr*ng/mL
- AUClast [2, 6]: 0.74 µg·h/mL and 1.61 µg·h/mL and 0.595 µg·h/mL
- CL [2, 6]: 1070* mL/hr/kg and 579 mL/hr/kg and 1640 mL/hr/kg
- Cmax [2, 6]: 1.46 µg/mL and 2.66 µg/mL and 0.997 µg/mL
- Dose Normalized AUClast [2, 6]: 740 and 1610 and 595
- Dose Normalized Cmax [2, 6]: 1460 and 2660 and 997
- Tmax [2, 6]: 2 min
- Vss [2, 6]: 1530* mL/kg and 1260 mL/kg and 1510 mL/kg
- AUC0-24hr ([2]; IV infusion 3 mg/kg, Mean): 7.58 µg·h/mL
- AUCinf ([2]; IV infusion 3 mg/kg, Mean): 7710 ng·h/mL
- AUCinf Extrapolated ([2]; IV infusion 3 mg/kg, Mean): 1.5%
- AUClast ([2]; IV infusion 3 mg/kg, Mean): 7.58 µg·h/mL
- Cmax ([2]; IV infusion 3 mg/kg, Mean): 10.3 µg/mL
- Dose Normalized AUClast ([2]; IV infusion 3 mg/kg, Mean): 2530
- Dose Normalized Cmax ([2]; IV infusion 3 mg/kg, Mean): 3450
- T1/2 ([2]; IV infusion 3 mg/kg, Mean): 5.2 h
- Vss ([2]; IV infusion 3 mg/kg, Mean): 1290 mL/kg
- AUC0-24hr [2, 7]: 6.65 µg·h/mL and 11 µg·h/mL and 5.12 µg·h/mL
- AUCinf [2, 7]: 6730 ng·h/mL and 11200 ng·h/mL and 5180 ng·h/mL
- AUCinf Extrapolated [2, 7]: 1.2% and 2.3% and 1.1%
- AUClast [2, 7]: 6.65 µg·h/mL and 11 µg·h/mL and 5.12 µg·h/mL
- CL [2, 7]: 446 mL/h/kg and 267 mL/h/kg and 580 mL/h/kg
- Cmax [2, 7]: 6.83 µg/mL and 15.5 µg/mL and 8.69 µg/mL
- Dose Normalized AUClast [2, 7]: 2220 and 3660 and 1710
- Dose Normalized Cmax [2, 7]: 2280 and 5170 and 2900
- T1/2 [2, 7]: 4.4 h and 6.3 h and 5 h
- Tmax [2, 7]: 2 min and 1.5 min
- Vss [2, 7]: 1580 mL/kg and 905 mL/kg and 1370 mL/kg
- AUC0-24hr ([2]; IV infusion 10 mg/kg, Mean): 50.3 µg·h/mL
- AUCinf ([2]; IV infusion 10 mg/kg, Mean): 50800 ng·h/mL
- AUCinf Extrapolated ([2]; IV infusion 10 mg/kg, Mean): 1.3%
- AUClast ([2]; IV infusion 10 mg/kg, Mean): 50.3 µg·h/mL
- Cmax ([2]; IV infusion 10 mg/kg, Mean): 38.2 µg/mL
- Dose Normalized AUClast ([2]; IV infusion 10 mg/kg, Mean): 5030
- Dose Normalized Cmax ([2]; IV infusion 10 mg/kg, Mean): 3820
- T1/2 ([2]; IV infusion 10 mg/kg, Mean): 4.6 h
- Vss ([2]; IV infusion 10 mg/kg, Mean): 1260 mL/kg
- AUCinf Extrapolated [2, 8]: 1.0% and 1.8% and 0.99%
- Cmax [2, 8]: 26 µg/mL and 24.3 µg/mL and 64.3 µg/mL
- Dose Normalized Cmax [2, 8]: 2600 and 2430 and 6430
- T1/2 [2, 8]: 4.3 h and 4.9 h and 4.6 h
- Tmax [2, 8]: 2 min
- AUCIinf_D ([3]; IV Dose 3 mg/kg): <3500 kg·ng·h/mL/ng
- AUCinf ([3]; IV Dose 3 mg/kg): <3.5 µg·h/mL
- Extrapolated ([3]; IV Dose 3 mg/kg): ~0.5%
- MRTlast ([3]; IV Dose 3 mg/kg): ~0.5 h
- T1/2 ([3]; IV Dose 3 mg/kg): ~8 h
- AUCIinf_D ([3]; IV Dose 15 mg/kg): 3589 kg·ng·h/mL/ng
- Extrapolated ([3]; IV Dose 15 mg/kg): 0.49%
- MIC range ([4]; S. aureus MRSA isolates, n 104): 1 to 16 mg/L
- MIC range ([4]; Staphylococcus aureus (n = 104), all methicillin-resistant): 1 to 16 mg/L
- MIC50 ([4]; n = 104): 4 mg/L
- Mode (MIC) ([4]; n = 104): 4 mg/L
- Mode (MIC) [5]: 16 mg/L

Source: patent publication US20220249599A1, “TREATMENT OF IMPLANTS WITH ENGINEERED ANTIMICROBIAL AMPHIPHILIC PEPTIDES” (priority 2018, published 2022)
